This passage reports TGI results from PubChem BioAssay (NCI).

Some test systems named below: SNB-78 CNS; XF 498 CNS; HOP-18 NSCLC; M19-MEL melanoma; RXF-631 renal; LXFL 529 NSCLC; DMS 273 small cell lung; DLD-1 colon; KM20L2 colon; DMS 114 small cell lung; P388 leukemia; P388/ADR leukemia; SN12K1 renal.
Common to all, as to experiment: NCI tumour cell line growth inhibition, 48 h

The structures appear in SMILES notation.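 Results reflect a 48-hour exposure of cells in 96-well plates to compound at five concentrations. At the TGI there is no net growth.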

With `CC1(C)COC(c2cccnc2/C=N/O)=N1`, the TGI with SNB-78 CNS, in the experiment with XF 498 CNS, with HOP-18 NSCLC, in the experiment with M19-MEL melanoma, in the experiment on RXF-631 renal and in the experiment with LXFL 529 NSCLC was > 100 µM each time. Besides, the TGI with DMS 273 small cell lung, with DLD-1 colon and in the experiment with KM20L2 colon was > 100 µM throughout.

Regarding `O=C1C(Cl)N(c2ccc(Cl)cc2)C1c1c[nH]c2ccccc12` (stereo not drawn), the TGI is 31.3 µM in the experiment on XF 498 CNS; 45.2 µM in the experiment with DMS 114 small cell lung; 98.4 µM in the experiment on M19-MEL melanoma; 30.2 µM with LXFL 529 NSCLC; 38.3 µM with KM20L2 colon.

For the molecule `COc1ccc(C2C(Cl)C(=O)N2n2cnc3ccccc3c2=O)cc1` (stereo not drawn), the TGI in the experiment with SNB-78 CNS, in the experiment on XF 498 CNS, in the experiment on DMS 114 small cell lung, in the experiment with HOP-18 NSCLC, in the experiment on M19-MEL melanoma and in the experiment on LXFL 529 NSCLC was > 100 µM throughout. Also, the TGI in the experiment on DMS 273 small cell lung, in the experiment with DLD-1 colon and with KM20L2 colon was > 100 µM in each case.

`O=c1[nH]c2c(nc1NC13CC4CC(CC(C4)C1)C3)c(=O)oc1ccccc12`: the TGI with XF 498 CNS, in the experiment on DMS 114 small cell lung, in the experiment with M19-MEL melanoma, in the experiment with LXFL 529 NSCLC, with DMS 273 small cell lung and in the experiment on DLD-1 colon was > 100 µM each time. Also, the TGI in the experiment with KM20L2 colon was > 100 µM.

As for `CCOC(=O)C1(C#N)C(c2ccccc2)CC(O)(c2ccc(OC)cc2)C(C(=O)c2ccc(OC)cc2)C1c1ccccc1` (stereo not drawn), the TGI with SNB-78 CNS, in the experiment with DMS 114 small cell lung, in the experiment on HOP-18 NSCLC, in the experiment on M19-MEL melanoma, in the experiment with LXFL 529 NSCLC and in the experiment on DMS 273 small cell lung was > 100 µM each time. The TGI in the experiment with DLD-1 colon and with KM20L2 colon was > 100 µM each time.

As for `Cc1cc(N)c(C)c2c1[nH]c1ccc(O)cc12`, the TGI with SNB-78 CNS, in the experiment with XF 498 CNS, with HOP-18 NSCLC, in the experiment with M19-MEL melanoma and in the experiment on DMS 273 small cell lung was > 100 µM throughout.

Regarding `CC(=O)N(C)c1ccc(Nc2cc(C)[nH]c3ccc4ncnc4c23)cc1`, the TGI is 53.6 µM with SNB-78 CNS; 5.92 µM in the experiment on XF 498 CNS; 49.2 µM in the experiment with P388 leukemia; 20.4 µM with DMS 114 small cell lung; 53.1 µM in the experiment with HOP-18 NSCLC; 20.1 µM with M19-MEL melanoma. Further, the TGI with DMS 273 small cell lung stood at 24.3 µM; in the experiment on P388/ADR leukemia, 228 µM; in the experiment with DLD-1 colon, 74.2 µM; in the experiment on KM20L2 colon, 37.2 µM; with SN12K1 renal, 16.6 µM.

Regarding `O=C(O)c1ccc(Nc2c3ccccc3nc3ccccc23)cc1`, the TGI in the experiment on SNB-78 CNS was > 100 µM; with P388 leukemia it was > 46.6 µM; in the experiment with DMS 114 small cell lung it was > 100 µM; in the experiment with HOP-18 NSCLC, > 100 µM; in the experiment with M19-MEL melanoma, > 100 µM; with DMS 273 small cell lung, > 100 µM. For the same molecule, the TGI in the experiment with P388/ADR leukemia is 98.4 µM; with KM20L2 colon, > 100 µM; with SN12K1 renal, > 100 µM.

In the case of `COc1ccc(C2COc3cc(OC(C)=O)c(OC(C)=O)cc3C2)cc1` (stereo not drawn), the TGI in the experiment on SNB-78 CNS was 81.4 µM; in the experiment on XF 498 CNS, 23.9 µM; with P388 leukemia, 33.5 µM; in the experiment with DMS 114 small cell lung, 20.6 µM; in the experiment on HOP-18 NSCLC, 19.3 µM; in the experiment with M19-MEL melanoma, 37.7 µM. Besides, the TGI with DMS 273 small cell lung is 52.7 µM; in the experiment with P388/ADR leukemia, 17.7 µM; in the experiment with DLD-1 colon, 54.8 µM; in the experiment on KM20L2 colon, 65.8 µM; with SN12K1 renal, 35.7 µM.

For `CCN(CC)CC1CCCCCCCCCCC1=O` (stereo not drawn), the TGI in the experiment on SNB-78 CNS, in the experiment with XF 498 CNS, in the experiment on DMS 114 small cell lung, in the experiment on M19-MEL melanoma, with LXFL 529 NSCLC and in the experiment on DMS 273 small cell lung was > 100 µM throughout. For the same molecule, the TGI with DLD-1 colon and in the experiment with KM20L2 colon was > 100 µM each time.

As to `CO/N=C/c1cc(OC)c(OC)c(OC)c1`, the TGI with SNB-78 CNS, in the experiment on XF 498 CNS, in the experiment on DMS 114 small cell lung, in the experiment on HOP-18 NSCLC, in the experiment with M19-MEL melanoma and in the experiment with RXF-631 renal was > 100 µM each time. The TGI with LXFL 529 NSCLC, with DMS 273 small cell lung, in the experiment with DLD-1 colon and in the experiment with KM20L2 colon was > 100 µM each time.

Turning to `COc1ccc(N2C(=O)/C(=C(\C)c3cc4ccccc4oc3=O)N=C2c2cc([N+](=O)[O-])ccc2Cl)cc1`, the TGI in the experiment with SNB-78 CNS, with DMS 114 small cell lung, in the experiment on HOP-18 NSCLC, in the experiment on M19-MEL melanoma, in the experiment with RXF-631 renal and in the experiment with LXFL 529 NSCLC was > 100 µM each time. The TGI in the experiment on DLD-1 colon and in the experiment on KM20L2 colon was > 100 µM each time.

Consider `COc1cc2cc3c4c(cc(OC)c(OC)c4c2cc1OC)CCN3C(=O)OCCN1CCNCC1`, for which the TGI in the experiment on SNB-78 CNS is 31.4 µM; in the experiment with XF 498 CNS, 29.4 µM; in the experiment on HOP-18 NSCLC it was 30.7 µM; in the experiment on M19-MEL melanoma, 19.6 µM; with LXFL 529 NSCLC, 28.3 µM; in the experiment on DMS 273 small cell lung it was 26.5 µM. The TGI with DLD-1 colon turned out to be 29.1 µM; in the experiment on KM20L2 colon, 24.9 µM.
